Assay results published in patent US11401243B2, “Quinoline derived small molecule inhibitors of nicotinamide N-methyltransferase (NNMT) and uses thereof” (priority 2017, dated 2022).
Entries after “also recorded” stand apart in the source; their conditions may differ.

Legend:
Caco-2 cells = experiment: Bi-directional permeability assay with Caco-2 cells; conditions: Caco-2; listed as 5-amino-1MQ
[1] = as above; conditions: human
[2] = tested on: NNMT activity in 3T3-L1 pre-adipocytes and differentiated adipocytes; experiment: Quantitative measurement of NNMT reaction product 1-MNA in cultured cells (LC/MS/MS); type: cell-based; conditions: for intracellular levels of 1-MNA: 30 μM
Procedure: Differentiation of 3T3-L1 pre-adipocytes. […] Briefly, standard culture media was supplemented with scheduled addition of adipogenic agents [3-isobutyl-1methyl xanthine (IBMX), Sigma Aldrich; MO, USA), dexamethasone (Sigma Aldrich; MO, USA), insulin (Gibco Life Technologies Inc.; Grand Island, N.Y., USA)] over 10 days to promote differentiation of 3T3-L1 fibroblasts into adipocytes; a combination of 1 mM IBMX, 1 μM dexamethasone, and 10 μg/ml of insulin in media were added to fully confluent 3T3-L1 fibroblasts for three days (days 0-3) to initiate differentiation. At day 3, the media was replaced with culture media supplemented with insulin (10 μg/ml). After day 6, cells were maintained in culture media until described experiments were begun (days 8-10).
Cellular 1-MNA concentrations were determined using an ultra-sensitive high-resolution AB Sciex 6500 Q-trap mass spectrometer coupled to an Agilent 1260 ultra-high pressure liquid chromatography (LC/MS/MS) system. Using multiple reaction monitoring (MRM) positive ion mode, the 1-MNA NNMT reaction product was quantified from peak area ratios using AB Sciex Analyst and MultiQuant 2.1 software and the parent precursor and Q3 masses set to m/z 137.1 and 94.1, respectively. Fragment ions at m/z of 92.1 and 77.9 were additionally used for the detection and confirmation of 1-MNA, respectively. […]. To determine the effect of NNMT inhibitor on NNMT activity in the pre-adipocytes and differentiated adipocytes (8×10^4 cells/well seeded prior to beginning differentiation), cells were treated with 30 μM inhibitor for 24 h. Similarly, to compare the relative effects of multiple NNMT inhibitors on NNMT activity in cultured adipocytes, differentiated adipocytes in 6-well plates were treated with 10 μM test compound for 24 h. Following treatment, media was replaced with 80% (v/v) methanol (cooled to −80° C.) containing 500 nmol 6-chloronicotinamide (6-CN) as an internal standard (IS) to extract cellular metabolites. Adherent cells were scrapped, then centrifuged at 4° C. and 13000 g for 15 min, and the resulting supernatants processed using established protocols. […]. Data were subsequently normalized to the IS peak area and transformed as % control values for cross-sample comparisons. […] Choice of inhibitor concentrations and time period was chosen based on the results from the MTT studies.

[3] = biological target: T1, recombinant human COMT enzyme (Homo sapiens, UniProt P21964); experiment: COMT activity assay (radiometric); type: biochemical; conditions: maximal tested concentration 600 μM
T1 construct: Reaction Biology Corporation (ran the assay)
T1 sequence (P21964 1-271): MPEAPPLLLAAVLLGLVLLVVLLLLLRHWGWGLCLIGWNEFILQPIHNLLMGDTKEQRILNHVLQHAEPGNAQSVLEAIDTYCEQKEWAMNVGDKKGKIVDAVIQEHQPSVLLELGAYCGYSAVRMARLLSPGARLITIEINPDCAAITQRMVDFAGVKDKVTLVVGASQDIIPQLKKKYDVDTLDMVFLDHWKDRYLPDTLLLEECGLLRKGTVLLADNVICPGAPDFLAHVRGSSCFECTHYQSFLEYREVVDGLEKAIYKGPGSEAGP

[4] = biological target: recombinant human PRMT3 enzyme (Homo sapiens, UniProt O60678); experiment: PRMT3 activity assay (radiometric); type: biochemical; conditions: 10 nM to 200 μM (1,8-diMQ) or 600 μM (5-amino-1MQ)
Description: Test compounds were screened in biochemical assays for activity against three structurally similar methyltransferases, including catechol-O-methyltransferase (COMT), DNA (cytosine-5)-methyltransferase 1 (DNMT1), and protein arginine methyltransferase 3 (PRMT3). Additional biochemical assays were used to test the ability of compounds to inhibit nicotinamide phosphoribosyl transferase (NAMPT) and NAD+-dependent protein deacetylase sirtuin 1 (SIRT1), two enzymes in the NAD+ biosynthesis/salvage pathway. All assays were performed by Reaction Biology Corporation (RBC; Malvern, Pa., USA) and complete assay details are noted below. For each test compound, IC50 values were calculated from dose-response curves established with 10 concentrations of a half-log dilution series. For each assay, established enzyme specific inhibitors were included as positive controls for enzyme function and assay reproducibility. IC50 values were determined by non-linear least-squares fitting of a 4-parameter dose-response curve to collected data points (Graphpad Prism 7.0; La Jolla, Calif., USA).
PRMT3 activity assay. […] The analogues, 1,8-diMQ and 5-amino-1MQ were tested at concentrations from 200 μM-10 nM and 600 μM-10 nM, respectively. Reactions were performed with 5 μM histone H3 (histone L-arginine) substrate, 1 μM radiolabeled S-adenosyl-L-[methyl-3H]methionine (SAM) co-substrate, and recombinant human PRMT3 enzyme. Activity was monitored via quantification of radiolabeled reaction product histone [methyl-3H]-L-arginine.

[5] = Parallel artificial membrane permeability assay (PAMPA); type: in vitro ADME
Procedure: Samples were tested in triplicates in three separate experiments.

Chain of recombinant human PRMT3 enzyme (O60678 whole entry): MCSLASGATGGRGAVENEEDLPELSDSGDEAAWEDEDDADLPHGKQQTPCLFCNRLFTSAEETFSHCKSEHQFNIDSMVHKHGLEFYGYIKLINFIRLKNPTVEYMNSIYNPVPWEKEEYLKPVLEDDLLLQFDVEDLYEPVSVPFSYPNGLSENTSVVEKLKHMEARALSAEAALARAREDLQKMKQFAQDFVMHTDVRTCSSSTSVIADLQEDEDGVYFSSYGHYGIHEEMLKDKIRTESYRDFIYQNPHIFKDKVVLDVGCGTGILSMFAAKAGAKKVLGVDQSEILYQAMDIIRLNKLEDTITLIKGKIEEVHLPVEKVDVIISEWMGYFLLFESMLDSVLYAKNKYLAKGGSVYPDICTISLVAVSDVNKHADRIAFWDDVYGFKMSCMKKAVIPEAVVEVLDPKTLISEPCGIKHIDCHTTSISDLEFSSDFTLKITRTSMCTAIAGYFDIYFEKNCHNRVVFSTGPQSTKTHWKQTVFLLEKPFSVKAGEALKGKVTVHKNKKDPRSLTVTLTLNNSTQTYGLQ

C[n+]1cccc2c(N)cccc21 [1j, 5-amino-1-methylquinolin-1-ium iodide]
Classification (active transport / efflux) (Caco-2 cells): no detectable efflux; also recorded: High permeability
efflux ratio at 2 h, 10 μM ([1]; Caco-2): 1.33
Papp A→B at 2 h, 10 μM ([1]; Caco-2, pH 7.4): 34.2 ×10⁻⁶ cm/s
Papp B→A at 2 h, 10 μM ([1]; Caco-2, pH 7.4): 45.2 ×10⁻⁶ cm/s
1-MNA levels in differentiated adipocytes relative to control ([2]; 10 μM, 24 h): significantly decreased
EC50 ([2]; Mus musculus, 3T3-L1, 24 h, 0.3-60 μM, 3-parameter sigmoidal fit, read-out: EC50 for inhibition of NNMT (intracellular 1-MNA) in fully differentiated adipocytes): 2300 nM
intracellular levels of 1-MNA ([2]; adipocytes, 24 h): significant reduction
relative intracellular 1-MNA levels, % of level in untreated adipocytes ([2]; inhibitor concentrations 10-60 μM): ~40%
intracellular levels of 1-MNA ([2]; pre-adipocytes, 24 h): significant reduction
inhibition at 600 µM [3]: 10%
inhibition of PRMT3 (in words) [4]: did not inhibit
Papp at 4 h, 400 μM ([5]; 400 μM in PBS, 4 h, room temperature, read-out: Flux): 3.01 ×10⁻⁶ cm/s
Permeability Classification (passive transport) ([5]; BCS classification, listed as 5-amino-1MQ): high passive and active transport; also recorded: High permeability
